Assay type in all cases: in vivo
Data set [1] relates to Echinochloa oryzacola Vasing. The data set is described as follows: Test Example 1: herbicidal activity, application before weed generation in submerged conditions (symbol A). As to conditions: application herbicide amount 320 g/ha. The method in brief:
(§1)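 Steps: alluvial soil flooded to 4 cm; weed seeds sown together; rice seedlings (2.5 leaf) transplanted; diluted emulsion applied to water surface the same day as sowing; plants grown at 25–30 °C in greenhouse; herbicidal effect rated on a 0–5 scale at 3 weeks.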

The test system of data set [2] is Apera spica-venti. Put plainly: Test Example 5: herbicidal effect by foliage application, plastic box (symbol L). As to conditions: 320 g/ha, 3 weeks after application. The procedure, abridged: (§2)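 Leaf-applied emulsion, water-diluted to a preset herbicide dose, on two-week-old seedlings raised in a 25° C. to 30° C. greenhouse; injury rated at 3 weeks using earlier criteria.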

Data set [3] relates to Alopecurus myosuroides. Put plainly: Test Example 5: herbicidal effect by foliage application, plastic box (symbol J). As to conditions: 320 g/ha, 3 weeks after application. The method in brief: as §2
Data set [4] deals with rapeseed. The data set is described as follows: Test Example 4: effect on crop by soil treatment (symbol g). The conditions noted are these: application herbicide amount 320 g/ha. The method in brief:
(§3)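 Sterilized diluvial soil, spot sowing, ~1.5 cm soil cover; greenhouse 25–30° C.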

In data set [5] the test system is Apera spica-venti. The data set is described as follows: Test Example 4: herbicidal effect by soil treatment (symbol L). The conditions noted are these: application herbicide amount 320 g/ha. The method in brief: (§4)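 Seeds were sown in sterilized diluvial soil, covered with about 1.5 cm of soil, and the soil surface was sprayed with a water-diluted emulsion of the compound at a predetermined rate. Plants grew in a greenhouse at 25° C. to 30° C.; effects were scored visually 3 weeks after application.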

In another data set the test system is beet. The data set is described as follows: Test Example 5: effect on crop by foliage application, plastic box (symbol f). As to conditions: 320 g/ha, 3 weeks after application. The procedure, abridged:
(§5)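 Greenhouse test at 25° C. to 30° C. Seeds of crops and weeds were spot-sown in boxes of sterilized diluvial soil under roughly 1.5 cm soil cover, then grown for foliage treatment.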

A further data set concerns Cyperus difformis. The data set is described as follows: Test Example 3: herbicidal effect by foliage application, Wagner pot (symbol E). The conditions noted are these: application herbicide amount 320 g/ha. The method in brief: (§6)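 Foliar spray of a water-diluted emulsion at a predetermined herbicide amount, applied to 14-day-old plants. Seedlings were raised in flooded alluvial soil (0.1–0.5 cm water) at 25–30 °C in a greenhouse. Injury was rated after 3 weeks against fixed criteria.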

The test system of data set [6] is rapeseed. Put plainly: Test Example 5: effect on crop by foliage application, plastic box (symbol g). As to conditions: 320 g/ha, 3 weeks after application. The method in brief: as §5
The next data set deals with Amaranthus retroflexus. The data set is described as follows: Test Example 5: herbicidal effect by foliage application, plastic box (symbol N). As to conditions: 320 g/ha, 3 weeks after application. The method in brief:
as §2

The test system of data set [7] is Alopecurus myosuroides. Put plainly: Test Example 4: herbicidal effect by soil treatment (symbol J). The conditions noted are these: application herbicide amount 320 g/ha. The procedure, abridged:
as §4

In a further data set the test system is Digitaria ciliaris. The data set is described as follows: Test Example 5: herbicidal effect by foliage application, plastic box (symbol F). The conditions noted are these: 320 g/ha, 3 weeks after application. The procedure, abridged: as §2
For data set [8], the system named is Echinochloa crus-galli var. crus-galli. Put plainly: Test Example 3: herbicidal effect by foliage application, Wagner pot (symbol H). As to conditions: application herbicide amount 320 g/ha. The method in brief:
as §6

Data set [9] relates to Galium spurium. Put plainly: Test Example 5: herbicidal effect by foliage application, plastic box (symbol Q). As to conditions: 320 g/ha, 3 weeks after application. The method in brief: as §2
The test system of the next data set is wheat. Put plainly: Test Example 4: effect on crop by soil treatment (symbol e). The conditions noted are these: application herbicide amount 320 g/ha. The method in brief:
as §3

For another data set, the system named is Abutilon theophrasti. Put plainly: Test Example 5: herbicidal effect by foliage application, plastic box (symbol M). As to conditions: 320 g/ha, 3 weeks after application. The method in brief:
as §2

The next data set deals with Scirpus juncoides. The data set is described as follows: Test Example 1: herbicidal activity, application before weed generation in submerged conditions (symbol B). The conditions noted are these: application herbicide amount 320 g/ha. The method in brief: as §1
Another data set concerns Stellaria media. Put plainly: Test Example 5: herbicidal effect by foliage application, plastic box (symbol P). As to conditions: 320 g/ha, 3 weeks after application. The method in brief: as §2
Data set [10] relates to Galium spurium. Put plainly: Test Example 4: herbicidal effect by soil treatment (symbol Q). As to conditions: application herbicide amount 320 g/ha. The procedure, abridged: as §4
The next data set has as its system Setaria viridis. The data set is described as follows: Test Example 4: herbicidal effect by soil treatment (symbol G). As to conditions: application herbicide amount 320 g/ha. The procedure, abridged: as §4

Data on three compounds can be found in patent publication US11000033B2, “Ketone or oxime compound, and herbicide” (NISSAN CHEMICAL CORPORATION, priority 2014, dated 2021).

As for `CON=C(C)CC1CC(OC(=O)N(C)C)=C(c2c(C)cc(-c3ccc(Cl)cc3)cc2C)C1=O` (mixture of isomers) [6-063], the “Herbicidal effect grade, A: Echinochloa oryzacola Vasing.” value in [1] was 5 (Herbicidal ratio of 90% or more (almost completely withered)). Moreover, in the data set on Apera spica-venti [2], the “L: Apera spica-venti, herbicidal effect (criteria of Test Example 1)” value was 5 (Herbicidal ratio of 90% or more (almost completely withered)). Also, in the data set with Alopecurus myosuroides [3], the “J: Alopecurus myosuroides, herbicidal effect (criteria of Test Example 1)” value is 3 (Herbicidal ratio of 40% or higher and lower than 70%). In the data set on rapeseed [4], the “g: rapeseed, effect on crop grade” value was 0 (Herbicidal ratio of 5% or lower (almost no effect)). For the same compound, in the data set with Apera spica-venti [5], the “L: Apera spica-venti, herbicidal effect grade” value is recorded as 5 (Herbicidal ratio of 90% or more (almost completely withered)). Also, in the data set with beet, the “f: beet, effect on crop (criteria of Test Example 1)” value (“f: beet, effect on crop” for short) is 0 (Herbicidal ratio of 5% or lower (almost no effect)). Also, in the data set with Cyperus difformis, the “herbicidal effect on E, grade 0-5” value was 1 (Herbicidal ratio of 5% or higher and lower than 20%). Moreover, the “g: rapeseed, effect on crop (criteria of Test Example 1)” value in the data set with rapeseed [6] is 4 (Herbicidal ratio of 70% or higher and lower than 90%). Besides, the “N: Amaranthus retroflexus, herbicidal effect (criteria of Test Example 1)” value (from here on “N: Amaranthus retroflexus”) in the data set on Amaranthus retroflexus was 0 (Herbicidal ratio of 5% or lower (almost no effect)). In addition, in the data set with Alopecurus myosuroides [7], the “J: Alopecurus myosuroides, herbicidal effect grade” value was 0 (Herbicidal ratio of 5% or lower (almost no effect)). For the same compound, in the data set with Digitaria ciliaris, the “F: Digitaria ciliaris, herbicidal effect (criteria of Test Example 1)” value (from here on “F: Digitaria ciliaris, herbicidal effect”) was 5 (Herbicidal ratio of 90% or more (almost completely withered)). Besides, the “herbicidal effect on H (Echinochloa crus-galli var. crus-galli), grade 0-5” value (shortened to “herbicidal effect on H”) in data set [8] was 4 (Herbicidal ratio of 70% or higher and lower than 90%). Moreover, the “Q: Galium spurium, herbicidal effect (criteria of Test Example 1)” value with Galium spurium [9] is 3 (Herbicidal ratio of 40% or higher and lower than 70%). In addition, the “e: wheat, effect on crop grade” value with wheat was 0 (Herbicidal ratio of 5% or lower (almost no effect)). Also, the “M: Abutilon theophrasti, herbicidal effect (criteria of Test Example 1)” value (“M: Abutilon theophrasti” below) in the data set on Abutilon theophrasti was 2 (Herbicidal ratio of 20% or higher and lower than 40%). In addition, in the data set on Scirpus juncoides, the “Herbicidal effect grade, B: Scirpus juncoides” value (shortened to “Herbicidal effect grade, B”) was 2 (Herbicidal ratio of 20% or higher and lower than 40%). Moreover, the “P: Stellaria media, herbicidal effect (criteria of Test Example 1)” value (from here on “P: Stellaria media, herbicidal effect”) in the data set on Stellaria media is on record as 0 (Herbicidal ratio of 5% or lower (almost no effect)). Also, in the data set with Galium spurium [10], the “Q: Galium spurium, herbicidal effect grade” value is given as 0 (Herbicidal ratio of 5% or lower (almost no effect)). In addition, the “G: Setaria viridis, herbicidal effect grade” value (“G: Setaria viridis” below) with Setaria viridis is 1 (Herbicidal ratio of 5% or higher and lower than 20%).
As for `CON=C(C)CC1CC(OC(=O)CCCC(C)=O)=C(c2c(C)cc(-c3ccc(Cl)cc3)cc2C)C1=O` (stereo not drawn) [6-080], the “Herbicidal effect grade, A: Echinochloa oryzacola Vasing.” value in data set [1] was 5 (Herbicidal ratio of 90% or more (almost completely withered)). Moreover, in the data set with Apera spica-venti [2], the “L: Apera spica-venti, herbicidal effect (criteria of Test Example 1)” value is listed as 5 (Herbicidal ratio of 90% or more (almost completely withered)). Moreover, in the data set on Alopecurus myosuroides [3], the “J: Alopecurus myosuroides, herbicidal effect (criteria of Test Example 1)” value is on record as 5 (Herbicidal ratio of 90% or more (almost completely withered)). Further, the “g: rapeseed, effect on crop grade” value with rapeseed [4] is reported as 0 (Herbicidal ratio of 5% or lower (almost no effect)). The “L: Apera spica-venti, herbicidal effect grade” value with Apera spica-venti [5] was 5 (Herbicidal ratio of 90% or more (almost completely withered)). In addition, in the data set with beet, the “f: beet, effect on crop” value is given as 0 (Herbicidal ratio of 5% or lower (almost no effect)). Also, the “herbicidal effect on E, grade 0-5” value in the data set on Cyperus difformis is listed as 5 (Herbicidal ratio of 90% or more (almost completely withered)). The “g: rapeseed, effect on crop (criteria of Test Example 1)” value in the data set on rapeseed [6] was 3 (Herbicidal ratio of 40% or higher and lower than 70%). For the same compound, in the data set on Amaranthus retroflexus, the “N: Amaranthus retroflexus” value is reported as 0 (Herbicidal ratio of 5% or lower (almost no effect)). For the same compound, in the data set on Alopecurus myosuroides [7], the “J: Alopecurus myosuroides, herbicidal effect grade” value was 5 (Herbicidal ratio of 90% or more (almost completely withered)). The “F: Digitaria ciliaris, herbicidal effect” value in the data set with Digitaria ciliaris was 5 (Herbicidal ratio of 90% or more (almost completely withered)). In addition, the “herbicidal effect on H” value in data set [8] is reported as 5 (Herbicidal ratio of 90% or more (almost completely withered)). Besides, the “Q: Galium spurium, herbicidal effect (criteria of Test Example 1)” value with Galium spurium [9] was 4 (Herbicidal ratio of 70% or higher and lower than 90%). For the same compound, the “e: wheat, effect on crop grade” value with wheat is given as 0 (Herbicidal ratio of 5% or lower (almost no effect)). The “M: Abutilon theophrasti” value with Abutilon theophrasti is 4 (Herbicidal ratio of 70% or higher and lower than 90%). In addition, the “Herbicidal effect grade, B” value in the data set on Scirpus juncoides is 1 (Herbicidal ratio of 5% or higher and lower than 20%). In addition, the “P: Stellaria media, herbicidal effect” value in the data set with Stellaria media is given as 0 (Herbicidal ratio of 5% or lower (almost no effect)). The “Q: Galium spurium, herbicidal effect grade” value in the data set with Galium spurium [10] is recorded as 0 (Herbicidal ratio of 5% or lower (almost no effect)). For the same compound, the “G: Setaria viridis” value in the data set on Setaria viridis is 5 (Herbicidal ratio of 90% or more (almost completely withered)).
On to `CON=C(C)CC1CC(O)=C(c2c(C)cc(C)cc2SC)C1=O` (stereo not drawn) [6-075], for which the “Herbicidal effect grade, A: Echinochloa oryzacola Vasing.” value in data set [1] is 4 (Herbicidal ratio of 70% or higher and lower than 90%). Moreover, in the data set with Apera spica-venti [2], the “L: Apera spica-venti, herbicidal effect (criteria of Test Example 1)” value is recorded as 5 (Herbicidal ratio of 90% or more (almost completely withered)). Also, the “J: Alopecurus myosuroides, herbicidal effect (criteria of Test Example 1)” value in the data set on Alopecurus myosuroides [3] is reported as 5 (Herbicidal ratio of 90% or more (almost completely withered)). In the data set on rapeseed [4], the “g: rapeseed, effect on crop grade” value is given as 0 (Herbicidal ratio of 5% or lower (almost no effect)). In the data set with Apera spica-venti [5], the “L: Apera spica-venti, herbicidal effect grade” value was 3 (Herbicidal ratio of 40% or higher and lower than 70%). In addition, the “f: beet, effect on crop” value in the data set with beet is on record as 0 (Herbicidal ratio of 5% or lower (almost no effect)). In addition, in the data set with Cyperus difformis, the “herbicidal effect on E, grade 0-5” value was 3 (Herbicidal ratio of 40% or higher and lower than 70%). Further, the “g: rapeseed, effect on crop (criteria of Test Example 1)” value in the data set with rapeseed [6] was 3 (Herbicidal ratio of 40% or higher and lower than 70%). The “N: Amaranthus retroflexus” value in the data set with Amaranthus retroflexus was 0 (Herbicidal ratio of 5% or lower (almost no effect)). In addition, in the data set with Alopecurus myosuroides [7], the “J: Alopecurus myosuroides, herbicidal effect grade” value is 4 (Herbicidal ratio of 70% or higher and lower than 90%). The “F: Digitaria ciliaris, herbicidal effect” value in the data set on Digitaria ciliaris was 1 (Herbicidal ratio of 5% or higher and lower than 20%). In addition, in data set [8], the “herbicidal effect on H” value was 3 (Herbicidal ratio of 40% or higher and lower than 70%). The “Q: Galium spurium, herbicidal effect (criteria of Test Example 1)” value with Galium spurium [9] is reported as 0 (Herbicidal ratio of 5% or lower (almost no effect)). Also, the “e: wheat, effect on crop grade” value in the data set with wheat was 0 (Herbicidal ratio of 5% or lower (almost no effect)). For the same compound, the “M: Abutilon theophrasti” value in the data set on Abutilon theophrasti is given as 0 (Herbicidal ratio of 5% or lower (almost no effect)). The “Herbicidal effect grade, B” value with Scirpus juncoides was 1 (Herbicidal ratio of 5% or higher and lower than 20%). In addition, in the data set on Stellaria media, the “P: Stellaria media, herbicidal effect” value was 0 (Herbicidal ratio of 5% or lower (almost no effect)). Moreover, the “Q: Galium spurium, herbicidal effect grade” value in the data set on Galium spurium [10] was 0 (Herbicidal ratio of 5% or lower (almost no effect)). In addition, in the data set on Setaria viridis, the “G: Setaria viridis” value is listed as 0 (Herbicidal ratio of 5% or lower (almost no effect)).
